Tested on: Chilo suppressalis
Test: Insecticidal activity against Chilo suppressalis, sprayed Oryza sativa seedlings, stalks fed to larvae
Format: in vivo
Conditions: parallel comparison test; for pest or weed control at 1 µg/mL / pest or weed control at 10 µg/mL: Chilo suppressalis, 72 h, 3 days after the treatment; for pest or weed control at 1 µg/mL: 1 mg/L, read-out: Lethality rate (%, 3 days after the treatment) 1 mg/L; for pest or weed control at 10 µg/mL: 10 mg/L, read-out: Lethality rate (%, 3 days after the treatment) 10 mg/L
Experimental: The compounds of the invention were determined for the insecticidal activities against several insects. The determination method was as follows:
After being dissolved in a mixed solvent of acetone/methanol (1:1), the test compound was diluted with water containing 0.1% (wt) Tween 80 to the desired concentration.
With Leucania separata, Plutella xylostella, and Chilo suppressalis as targets, airbrush spray method was used for the determination of activity.
Determination method: 1) Preparation of Oryza sativa seedlings: Oryza sativa was cultivated in a constant temperature room (a temperature of 26-28° C., a relative humidity of about 60-80%, and a light illumination of 16hL:8hD) in a small plastic cup with a diameter of 4.5 cm and a height of 4 cm, and when the Oryza sativa grew up to the 4-5 leaf stage, robust and consistent Oryza sativa seedlings were selected for chemical treatment, and 3 repetitions were performed for each treatment. 2) Preparation for test insects: Chilo suppressalis at 3rd instar larvae were raised continuously indoors. 3) The Oryza sativa stems were sprayed and insects were introduced. Spraying was performed uniformly on the whole plant of the Oryza sativa seedlings, with 15 ml of compound solution for each treatment. The blank control was treated first, and then the above operations were repeated in the order of the test concentration from low to high. After the Oryza sativa seedlings were sprayed, they were placed in a cool place to dry the liquid, and about 5 cm of stalks at the base of the stems were cut and fed to the test insects. A glass petri dish with a diameter of 90 mm was placed with filter paper at the bottom of the dish, and then was moisturized by adding water. After that, about 5 rice stalks and 10 larvae were placed in each dish, and the petri dish was sealed with a non-woven fabric and placed in a constant temperature room for cultivation. The number of remaining live insects was investigated 3 days after the treatment.
The compounds 1, 3, 7, 11 of this disclosure and the comparative compounds were selected for a parallel comparison test of the insecticidal activity against Chilo suppressalis (3 days after the treatment), through a same determination method as that described above.

Row | Structure (SMILES) | pest or weed control at 1 µg/mL | pest or weed control at 10 µg/mL | Lethality rate (%, 3 days after the treatment) 0.25 mg/L | Lethality rate (%, 3 days after the treatment) 0.5 mg/L
1 | O=C(Nc1c(Br)cc(C(F)(C(F)(F)F)C(F)(F)F)cc1C(F)(F)F)c1cccc(N(CC2CC2)C(=O)c2ccc(F)cc2)c1F [Compound 2-1] | 96.7% | 100% | 23.33% | 66.67%
2 | O=C(Nc1c(Br)cc(C(F)(C(F)(F)F)C(F)(F)F)cc1C(F)(F)F)c1cccc(N(CC2CC2)C(=O)c2cccnc2)c1F [Compound 5-1] | 0% | 16.7% | – | –
3 | N#Cc1ccc(C(=O)N(CC2CC2)c2cccc(C(=O)Nc3c(Br)cc(C(F)(C(F)(F)F)C(F)(F)F)cc3C(F)(F)F)c2F)cn1 [Compound 11] | 100% | 100% | 100% | 100%
4 | O=C(Nc1c(Br)cc(C(F)(C(F)(F)F)C(F)(F)F)cc1Br)c1cccc(N(CC2CC2)C(=O)c2cccnc2)c1F [Compound 1-2] | 0% | 0% | – | –
5 | O=C(Nc1c(Br)cc(C(F)(C(F)(F)F)C(F)(F)F)cc1C(F)(F)F)c1cccc(N(CC2CC2)C(=O)c2ccc(F)nc2)c1F [Compound 3] | 100% | 100% | 100% | 100%
6 | O=C(Nc1c(Br)cc(C(F)(C(F)(F)F)C(F)(F)F)cc1Br)c1cccc(N(CC2CC2)C(=O)c2ccc(F)cc2)c1F [Compound 1-1] | 50% | 100% | 0% | 13.33%
7 | O=C(Nc1c(Br)cc(C(F)(C(F)(F)F)C(F)(F)F)cc1C(F)(F)F)c1cccc(N(CC2CC2)C(=O)c2ccc(Cl)nc2)c1F [Compound 5-2] | 33.3% | 70% | – | 0%
8 | O=C(Nc1c(Br)cc(C(F)(C(F)(F)F)C(F)(F)F)cc1C(F)(F)F)c1cccc(N(CC2CC2)C(=O)c2ccc(C(F)(F)F)cc2)c1F [Compound 3-1] | 56.7% | 100% | 0% | 26.67%
9 | N#Cc1ccc(C(=O)N(CC2CC2)c2cccc(C(=O)Nc3c(Br)cc(C(F)(C(F)(F)F)C(F)(F)F)cc3C(F)(F)F)c2F)cc1 [Compound 4-1] | 93.3% | 100% | 16.67% | 53.33%
